“And” between values parts separate entries of the source, which are not always exact repeats. Identical values can stand only once. Like-named read-outs stand apart in the source and are kept apart here. Numbered stars: 1 amine (or outer) side, 2 acyl side, 3 side chain; on linkers, the order of the positions; unused ones are H or OH. Square brackets hold non-standard residues; d marks the D form. Peptide text beside a SMILES is read from it. * marks the point of attachment. X5 = NP(=O)(OCc1c(F)c(F)c(N*)c(F)c1F)N(CCCl)CCCl; X4 = NP(=O)(OCc1c(F)cc(N*)cc1F)N(CCCl)CCCl; X2 = NP(=O)(OCc1ccc(N*)c(F)c1)N(CCCl)CCCl; X1 = NP(=O)(OCc1ccc(N*)cc1F)N(CCCl)CCCl; X3 = NP(=O)(OCc1ccc(N*)cc1)N(CCCl)CCCl; Glutaryl = O=C(CCCC(=O)[*:2])[*:1]; Hyp = O=C(O)[C@@H]1C[C@@H](O)CN1; Chg = N[C@H](C(=O)O)C1CCCCC1
How the values were obtained:
[1] = Stability of peptide-linker-drug conjugates in the absence of PSA, disappearance monitored by HPLC; format: physicochemical; settings: for half-life: 0.1 M phosphate buffer, pH 7.4, 37° C., read-out: T1/2 -PSA (stability) (converted); for Stability relative to 5a in the absence of PSA: in words
Experimental: (§1) First, the stability and PSA cleavage of glutaryl-Hyp-Ala-Ser-Chg-Gln-aminobenzyl phosphoramide mustard without substitutions on the benzyl ring (5a) was tested by monitoring the disappearance of the peptide-linker-drug conjugate using HPLC. […] Thus, peptide-linker-drug conjugate 5a is a substrate of PSA. The hydrolysis in the presence of PSA was 40 times faster than that in the absence of PSA. But, the instability in the absence of PSA was a concern. This instability can be addressed by introducing an electron-withdrawing fluorine atom on the aromatic ring as shown in Table 1. […] In the presence of PSA, they were more quickly hydrolyzed with t½of 43 and 57 min, respectively.

[2] = tested on: DU145 human prostate cancer cell line; assay: In vitro antiproliferative activity assay in non-PSA-producing DU145 cells; format: cell-based; settings: 72 h drug exposure
Text: (§2) Furthermore, analogs 5b and 5c were synthesized with an electron-withdrawing fluorine atom at C2 (5b) and C3 (5c), respectively.

PSA = PSA (Homo sapiens, UniProt P07288); assay: PSA cleavage of peptide-linker-drug conjugates, disappearance monitored by HPLC; format: biochemical; settings: for half-life: PSA, in the presence of PSA; for Stability Ratio between T1/2 in the absence and presence of PSA: T1/2 (-PSA) / T1/2 (+PSA)
Chain of PSA (P07288 25-261): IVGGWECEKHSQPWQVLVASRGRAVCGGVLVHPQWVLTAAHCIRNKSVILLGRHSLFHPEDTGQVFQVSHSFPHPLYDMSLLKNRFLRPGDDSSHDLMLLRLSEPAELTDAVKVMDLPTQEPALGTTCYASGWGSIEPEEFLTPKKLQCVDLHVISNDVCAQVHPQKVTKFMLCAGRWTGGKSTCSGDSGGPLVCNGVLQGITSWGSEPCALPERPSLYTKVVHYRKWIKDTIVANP
Experimental: as §1

[3] = tested on: LNCaP human prostate cancer cell line; assay: In vitro antiproliferative activity assay in PSA-producing LNCaP cells; format: cell-based; settings: 72 h drug exposure
Text: as §2

[4] = read-out: T1/2 +PSA (PSA-catalyzed cleavage) (converted)
[5] = read-out: t½ in the presence of PSA

Compound	half-life [1]	Stability relative to 5a in the absence of PSA [1]	IC50 [2]	half-life (PSA; [4])	half-life (PSA; [5])	Stability Ratio between T1/2 in the absence and presence of PSA (PSA)	IC50 [3]
C[C@H](NC(=O)[C@@H]1C[C@@H](O)CN1C(=O)CCCC(=O)O)C(=O)N[C@@H](CO)C(=O)N[C@H](C(=O)N[C@@H](CCC(N)=O)C(=O)Nc1ccc(COP(N)(=O)N(CCCl)CCCl)cc1F)C1CCCCC1 (stereo partly drawn) [5c, glutaryl-Hyp-Ala-Ser-Chg-Gln-NH-3-fluorobenzyl phosphoramide mustard] (Glutaryl-[Hyp]AS[Chg]Q-X2)	462 h	much more stable than 5a	> 100 µM	0.65 h	0.95 h	711	29 µM
C[C@H](NC(=O)[C@@H]1C[C@@H](O)CN1C(=O)CCCC(=O)O)C(=O)N[C@@H](CO)C(=O)N[C@H](C(=O)N[C@@H](CCC(N)=O)C(=O)Nc1cc(F)c(COP(N)(=O)N(CCCl)CCCl)c(F)c1)C1CCCCC1 (stereo partly drawn) [5d, glutaryl-Hyp-Ala-Ser-Chg-Gln-NH-2,6-difluorobenzyl phosphoramide mustard] (Glutaryl-[Hyp]AS[Chg]Q-X4)	131 h	–	> 100 µM	1.75 h	–	75	20 µM
C[C@H](NC(=O)[C@@H]1C[C@@H](O)CN1C(=O)CCCC(=O)O)C(=O)N[C@@H](CO)C(=O)N[C@H](C(=O)N[C@@H](CCC(N)=O)C(=O)Nc1ccc(COP(N)(=O)N(CCCl)CCCl)cc1)C1CCCCC1 (stereo partly drawn) [5a, glutaryl-Hyp-Ala-Ser-Chg-Gln-NH-benzyl phosphoramide mustard] (Glutaryl-[Hyp]AS[Chg]Q-X3)	48 h	–	~35 µM and 35 µM	1.2 h	–	40	11 µM
C[C@H](NC(=O)[C@@H]1C[C@@H](O)CN1C(=O)CCCC(=O)O)C(=O)N[C@@H](CO)C(=O)N[C@H](C(=O)N[C@@H](CCC(N)=O)C(=O)Nc1c(F)c(F)c(COP(N)(=O)N(CCCl)CCCl)c(F)c1F)C1CCCCC1 (stereo partly drawn) [5e, glutaryl-Hyp-Ala-Ser-Chg-Gln-NH-2,3,5,6-tetrafluorobenzyl phosphoramide mustard] (Glutaryl-[Hyp]AS[Chg]Q-X5)	178 h	–	> 100 µM	1.1 h	–	162	> 100 µM
C[C@H](NC(=O)[C@@H]1C[C@@H](O)CN1C(=O)CCCC(=O)O)C(=O)N[C@@H](CO)C(=O)N[C@H](C(=O)N[C@@H](CCC(N)=O)C(=O)Nc1ccc(COP(N)(=O)N(CCCl)CCCl)c(F)c1)C1CCCCC1 (stereo partly drawn) [5b, glutaryl-Hyp-Ala-Ser-Chg-Gln-NH-2-fluorobenzyl phosphoramide mustard] (Glutaryl-[Hyp]AS[Chg]Q-X1)	105 h	much more stable than 5a	> 100 µM	0.93 h	0.717 h	113	5.3 µM

Source: patent US8518891B2 (priority 2006, dated 2013)
